{"source": "patent US7491409B1", "about": "“Encapsulation of bioactive complexes in liposomes” (Transave, Inc., priority 1999, dated 2009)", "test_system": "pZeoLacZ plasmid DNA", "description": "Each dialysis device was rotated on a 12 inch motorized wheel overnight (approximately 20 hours). The DNA-containing chamber was then withdrawn with repeated pipetting to mix the sample, and it was placed in a 250 μl volume cuvette. The absorbance at 400 nm was used to monitor turbidity against the buffer background."}
{"smiles": "NCCCNCCCCNCCCN", "note": "[spermine]", "values": [{"measurement": "total spermine concentration sufficient to condense the DNA", "setting": "in the presence of the amount of N-C12-DOPE used", "result": 0.85, "unit": "mM"}, {"measurement": "spermine concentration sufficient to condense the plasmid DNA", "setting": "initial 250 μl emulsion, without N-C12-DOPE", "result": "approximately 0.6 mM"}]}
